A word on the pIC50: it is the IC50 on a negative log10 scale, so that one unit is a factor of ten.

What all share (format): biochemical
Assay [1] addresses T1, human JAK1 (a.a. 837-1142) (Homo sapiens, UniProt P23458).
T1 construct: human JAK1 (a.a. 837-1142); His tag (N); made in house; host or cells: insect cells (baculovirus)
Kind of assay: In vitro JAK kinase assay (HTRF, phosphorylation of a biotinylated peptide), JAK1. The following applies: read-out: JAK1 IC50. In outline:
(§1)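 Kinase activity was measured as phosphorylation of a biotinylated peptide, with ATP at 90 μM for JAK1, 30 μM for JAK2 and 3 μM for JAK3. Reactions ran 1 hr at room temperature, were stopped with EDTA plus SA-APC and Eu-Py20, and were read by HTRF after 40 minutes of antibody binding.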
(TR-FRET usually uses a lanthanide donor and a delayed reading to cut background.)

The target of assay [2] is T2, human JAK2 (a.a. 828-1132) (Homo sapiens, UniProt O60674).
T2 construct: JAK2 (a.a. 828-1132); His tag (N); made in house; host or cells: insect cells (baculovirus)
Put plainly: In vitro JAK kinase assay (HTRF, phosphorylation of a biotinylated peptide), JAK2. In outline:
as §1

Assay [3] has as its target T3, human JAK3 (a.a. 781-1124) (Homo sapiens, UniProt P52333).
T3 construct: JAK3 (a.a. 781-1124); His tag (N); made in house; host or cells: insect cells (baculovirus)
Kind of assay: In vitro JAK kinase assay (HTRF, phosphorylation of a biotinylated peptide), JAK3. In outline:
as §1

Another assay concerns the target TYK2 (Homo sapiens, UniProt P29597). Kind of assay: TYK2 kinase inhibition (Table A1).

SMILES strings stand for the structures. pIC50: −log10 of the molar value. Structures can show the parent of a compound that is named as a salt. Where two headings read alike, the source gives them in different places. Bounds are passed on as bounds.

T3 sequence (P52333 781-1124): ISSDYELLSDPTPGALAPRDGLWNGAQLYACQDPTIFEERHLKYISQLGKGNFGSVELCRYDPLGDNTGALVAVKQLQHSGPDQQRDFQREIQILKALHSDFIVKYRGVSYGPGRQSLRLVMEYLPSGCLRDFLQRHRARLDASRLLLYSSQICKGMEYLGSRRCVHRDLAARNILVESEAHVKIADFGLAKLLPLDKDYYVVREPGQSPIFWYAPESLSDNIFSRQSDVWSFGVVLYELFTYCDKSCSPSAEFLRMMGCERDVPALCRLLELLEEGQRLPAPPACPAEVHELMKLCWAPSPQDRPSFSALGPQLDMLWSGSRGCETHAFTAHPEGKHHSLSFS
Chain of TYK2 (P29597 whole entry): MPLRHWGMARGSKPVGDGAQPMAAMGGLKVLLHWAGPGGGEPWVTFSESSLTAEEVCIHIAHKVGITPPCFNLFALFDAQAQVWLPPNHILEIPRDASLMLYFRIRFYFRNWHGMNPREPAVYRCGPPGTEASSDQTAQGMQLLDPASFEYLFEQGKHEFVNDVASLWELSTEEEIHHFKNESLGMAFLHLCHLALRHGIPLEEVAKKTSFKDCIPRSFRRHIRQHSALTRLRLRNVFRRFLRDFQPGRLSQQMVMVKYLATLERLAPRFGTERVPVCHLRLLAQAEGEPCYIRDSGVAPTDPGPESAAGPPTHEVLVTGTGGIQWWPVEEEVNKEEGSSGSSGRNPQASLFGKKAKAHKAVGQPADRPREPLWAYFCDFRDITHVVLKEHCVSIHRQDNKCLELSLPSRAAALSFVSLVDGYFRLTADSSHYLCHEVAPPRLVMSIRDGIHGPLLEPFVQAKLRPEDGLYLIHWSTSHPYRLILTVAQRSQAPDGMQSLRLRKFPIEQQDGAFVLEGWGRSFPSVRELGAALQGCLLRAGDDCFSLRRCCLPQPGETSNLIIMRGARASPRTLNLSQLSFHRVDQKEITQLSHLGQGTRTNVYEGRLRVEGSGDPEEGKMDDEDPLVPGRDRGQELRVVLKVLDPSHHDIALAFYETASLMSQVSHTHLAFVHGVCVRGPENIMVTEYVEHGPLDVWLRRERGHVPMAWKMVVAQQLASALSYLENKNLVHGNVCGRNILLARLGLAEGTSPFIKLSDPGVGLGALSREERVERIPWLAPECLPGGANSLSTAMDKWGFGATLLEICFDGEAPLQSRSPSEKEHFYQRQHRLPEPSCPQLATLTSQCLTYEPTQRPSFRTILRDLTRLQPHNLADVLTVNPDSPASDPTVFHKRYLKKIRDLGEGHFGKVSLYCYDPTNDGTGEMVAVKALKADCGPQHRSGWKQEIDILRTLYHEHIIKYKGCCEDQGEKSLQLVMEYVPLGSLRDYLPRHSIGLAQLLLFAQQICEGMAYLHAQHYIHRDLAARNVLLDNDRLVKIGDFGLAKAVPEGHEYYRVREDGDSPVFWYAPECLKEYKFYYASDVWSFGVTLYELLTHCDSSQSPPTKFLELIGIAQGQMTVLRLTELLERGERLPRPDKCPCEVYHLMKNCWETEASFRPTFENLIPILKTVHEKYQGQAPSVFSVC
T1 sequence (P23458 849-1154): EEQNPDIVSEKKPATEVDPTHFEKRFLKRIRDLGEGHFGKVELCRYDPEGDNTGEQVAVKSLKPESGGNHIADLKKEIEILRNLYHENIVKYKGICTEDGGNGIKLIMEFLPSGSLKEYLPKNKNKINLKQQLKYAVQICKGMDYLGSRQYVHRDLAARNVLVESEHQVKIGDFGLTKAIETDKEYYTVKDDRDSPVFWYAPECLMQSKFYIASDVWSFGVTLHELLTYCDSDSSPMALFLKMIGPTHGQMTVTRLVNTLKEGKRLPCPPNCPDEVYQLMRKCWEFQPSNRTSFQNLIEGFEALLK
T2 sequence (O60674 828-1132): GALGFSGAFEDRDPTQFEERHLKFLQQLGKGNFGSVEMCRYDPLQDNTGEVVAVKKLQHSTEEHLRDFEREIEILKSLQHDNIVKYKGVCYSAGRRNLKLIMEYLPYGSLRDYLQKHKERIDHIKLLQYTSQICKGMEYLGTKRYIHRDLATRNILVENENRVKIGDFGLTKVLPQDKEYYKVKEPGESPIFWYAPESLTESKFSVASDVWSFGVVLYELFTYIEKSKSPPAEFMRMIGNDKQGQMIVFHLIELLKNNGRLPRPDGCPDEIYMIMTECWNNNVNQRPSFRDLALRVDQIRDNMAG

Consider `O=C(Nc1cc2cc(c1)Nc1nc(ncc1Cl)Nc1cccc(c1)CC2)C1CCC1` [Example B211, N-[6-Chloro-2,4,8,22-tetraazatetracyclo[14.3.1.1(3,7).1(9,13)]docosa-1(20),3(22),4,6,9(21),10,12,16,18-nonaen-11-yl]cyclobutanecarboxamide trifluoroacetate], for which the pIC50 in assay [1] (Table B1) was 7.25; in assay [2] (Table B1), 7.70; in assay [3] (Table B1), 6.87; against TYK2 (Table B1) it was 6.72.
`Cc1oncc1C(=O)N1CCC(CCOc2ccc3cc2CCc2cncc(c2)Nc2ncc(Cl)c(n2)N3)CC1` [Example D178, 6-Chloro-12-(2-{1-[(5-methylisoxazol-4-yl)carbonyl]piperidin-4-yl}ethoxy)-2,4,8,18,22-pentaazatetracyclo[14.3.1.1(3,7).1(9,13)]docosa-1(20),3(22),4,6,9(21),10,12,16,18-nonaene bis(trifluoroacetate)]: the pIC50 in assay [1] (Table D1) was 6.58; in assay [2] (Table D1), below 6.40; in assay [3] (Table D1) it was below 6.40; against TYK2 (Table D1), below 6.40.
Take `O=C(C[C@H]1CCCNC1)Nc1ccc2cc1CCc1cccc(c1)Nc1ncc(Cl)c(n1)N2` [Example D193, N-[6-Chloro-2,4,8,22-tetraazatetracyclo[14.3.1.1(3,7).1(9,13)]docosa-1(20),3(22),4,6,9(21),10,12,16,18-nonaen-12-yl]-2-[(3R)-piperidin-3-yl]acetamidebis(trifluoroacetate)]: the pIC50 is 8.85 in assay [1] (Table D1), 8.08 in assay [2] (Table D1), 7.49 in assay [3] (Table D1) and 8.21 at TYK2 (Table D1).
The corresponding values for `O=C(c1ccncc1)N1CCC(CCOc2ccc3cc2CCc2cncc(c2)Nc2ncc(Cl)c(n2)N3)CC1` [Example D181, 6-Chloro-12-[2-(1-isonicotinoylpiperidin-4-yl)ethoxy]-2,4,8,18,22-pentaazatetracyclo[14.3.1.1(3,7).1(9,13)]docosa-1(20),3(22),4,6,9(21),10,12,16,18-nonaene tris(trifluoroacetate)] are 6.94, 6.50, below 6.40 and below 6.40.
As to `Cc1cc(C(=O)N2CCC(COc3ccc4cc3CCc3cncc(c3)Nc3ncc(Cl)c(n3)N4)CC2)no1` [Example D226, 6-Chloro-12-({1-[(5-methylisoxazol-3-yl)carbonyl]piperidin-4-yl}methoxy)-2,4,8,18,22-pentaazatetracyclo[14.3.1.1(3,7).1(9,13)]docosa-1(20),3(22),4,6,9(21),10,12,16,18-nonaene bis(trifluoroacetate)], the pIC50 is 6.59 in assay [1] (Table D1), below 6.40 in assay [2] (Table D1), below 6.40 in assay [3] (Table D1) and below 6.40 at TYK2 (Table D1).
Consider `O=C(Cc1ccccn1)Nc1ccc2cc1CCc1cccc(c1)Nc1ncc(Cl)c(n1)N2` [Example C41, N-[6-Chloro-2,4,8,22-tetraazatetracyclo[14.3.1.1(3,7).1(9,13)]docosa-1(20),3(22),4,6,9(21),10,12,16,18-nonaen-12-yl]-2-pyridin-2-ylacetamide bis(trifluoroacetate)], for which the pIC50 in assay [1] is 6.95; in assay [2], 7.19; in assay [3], 5.93; against TYK2, 6.61.
With `N#CC1(C(=O)N2CCN(C(=O)COc3ccc4cc3CCc3cncc(c3)Nc3ncc(Cl)c(n3)N4)CC2)CC1` [Example D267, 1-{[4-({[6-Chloro-2,4,8,18,22-pentaazatetracyclo[14.3.1.1(3,7).1(9,13)]docosa-1(20),3(22),4,6,9(21),10,12,16,18-nonaen-12-yl]oxy}acetyl)piperazin-1-yl]carbonyl}cyclopropanecarbonitrile bis(trifluoroacetate)], the pIC50 in assay [1] (Table D1) is 7.08; in assay [2] (Table D1), 6.52; in assay [3] (Table D1), below 6.40; against TYK2 (Table D1) it was below 6.40.
As for `O=C(CC1CCN(c2ccncc2)C1)Nc1ccc2cc1CCc1cncc(c1)Nc1ncc(Cl)c(n1)N2` (centres unmarked) [Example D157, N-[6-Chloro-2,4,8,18,22-pentaazatetracyclo[14.3.1.1(3,7).1(9,13)]docosa-1(20),3(22),4,6,9(21),10,12,16,18-nonaen-12-yl]-2-(1-pyridin-4-ylpyrrolidin-3-yl)acetamide tris(trifluoroacetate)], the pIC50 in assay [1] (Table D1) was 7.41; in assay [2] (Table D1), below 6.40; in assay [3] (Table D1), below 6.40; at TYK2 (Table D1), below 6.40.
As for `O=C(COc1ccc2cc1CCc1cncc(c1)Nc1ncc(Cl)c(n1)N2)N1CCNCC1` [Example D229, 6-Chloro-12-(2-oxo-2-piperazin-1-ylethoxy)-2,4,8,18,22-pentaazatetracyclo[14.3.1.1(3,7).1(9,13)]docosa-1(20),3(22),4,6,9(21),10,12,16,18-nonaene tris(trifluoroacetate)], the pIC50 is 6.82 in assay [1] (Table D1), 6.63 in assay [2] (Table D1), below 6.40 in assay [3] (Table D1) and below 6.40 on TYK2 (Table D1).
As for `O=C(COc1ccc2cc1CCc1cncc(c1)Nc1ncc(Cl)c(n1)N2)N1CCN(c2ccccn2)CC1` [Example D231, 6-Chloro-12-[2-oxo-2-(4-pyridin-2-ylpiperazin-1-yl)ethoxy]-2,4,8,18,22-pentaazatetracyclo[14.3.1.1(3,7).1(9,13)]docosa-1(20),3(22),4,6,9(21),10,12,16,18-nonaene tris(trifluoroacetate)], the pIC50 in assay [1] (Table D1) was 7.28; in assay [2] (Table D1), 6.66; in assay [3] (Table D1) it was below 6.40; at TYK2 (Table D1), below 6.40.
With `Cc1cc(C(=O)N2CCN(C(=O)COc3ccc4cc3CCc3cncc(c3)Nc3ncc(Cl)c(n3)N4)CC2)n[nH]1` [Example D266, 6-Chloro-12-(2-{4-[(5-methyl-1H-pyrazol-3-yl)carbonyl]piperazin-1-yl}-2-oxoethoxy)-2,4,8,18,22-pentaazatetracyclo[14.3.1.1(3,7).1(9,13)]docosa-1(20),3(22),4,6,9(21),10,12,16,18-nonaene tris(trifluoroacetate)], the negative logarithm of the IC50 (pIC50) in assay [1] (Table D1) is 7.51; in assay [2] (Table D1) it was 7.68; in assay [3] (Table D1), below 6.40; at TYK2 (Table D1), below 6.40.
Turning to `O=C(C[C@H]1CCCN(C(=O)Nc2ccccc2)C1)Nc1ccc2cc1CCc1cncc(c1)Nc1ncc(Cl)c(n1)N2` [Example D199, (3R)-3-(2-{[6-Chloro-2,4,8,18,22-pentaazatetracyclo[14.3.1.1(3,7).1(9,13)]docosa-1(20),3(22),4,6,9(21),10,12,16,18-nonaen-12-yl]amino}-2-oxoethyl)-N-phenylpiperidine-1-carboxamide bis(trifluoroacetate)], the pIC50 in assay [1] (Table D1) is 8.24; in assay [2] (Table D1), 8.10; in assay [3] (Table D1), 7.19; against TYK2 (Table D1), 7.68.
The corresponding values for `O=C(c1ccccc1)N1CCN(c2ccc3cc2CCc2cccc(c2)Nc2ncc(Cl)c(n2)N3)CC1` [Example D94, 12-(4-Benzoylpiperazin-1-yl)-6-chloro-2,4,8,22-tetraazatetracyclo[14.3.1.1(3,7).1(9,13)]docosa-1(20),3(22),4,6,9(21),10,12,16,18-nonaene bis(trifluoroacetate)] are 7.10, 7.37, 6.86 and 6.80.
The corresponding values for `O=C(C[C@H]1CCCN(C(=O)c2ccccc2)C1)Nc1ccc2cc1CCc1cccc(c1)Nc1ncc(Cl)c(n1)N2` [Example D203, 2-[(3R)-1-Benzoylpiperidin-3-yl]-N-[6-chloro-2,4,8,22-tetraazatetracyclo[14.3.1.1(3,7).1(9,13)]docosa-1(20),3(22),4,6,9(21),10,12,16,18-nonaen-12-yl]acetamide trifluoroacetate] are 7.49, 7.89, 7.07 and 7.15.
Turning to `O=C(Nc1ccccc1)N1CCC(CCOc2ccc3cc2CCc2cncc(c2)Nc2ncc(Cl)c(n2)N3)CC1` [Example D162, 4-(2-{[6-Chloro-2,4,8,18,22-pentaazatetracyclo[14.3.1.1(3,7).1(9,13)]docosa-1(20),3(22),4,6,9(21),10,12,16,18-nonaen-12-yl]oxy}ethyl)-N-phenylpiperidine-1-carboxamide bis(trifluoroacetate)], the pIC50 in assay [1] (Table D1) is 8.00; in assay [2] (Table D1), 7.15; in assay [3] (Table D1), below 6.40; against TYK2 (Table D1) it was below 6.40.
As to `O=C(COc1ccc2cc1CCc1cncc(c1)Nc1ncc(Cl)c(n1)N2)N1CCN(c2nccc3occc23)CC1` [Example D245, 6-Chloro-12-[2-(4-furo[3,2-c]pyridin-4-ylpiperazin-1-yl)-2-oxoethoxy]-2,4,8,18,22-pentaazatetracyclo[14.3.1.1(3,7).1(9,13)]docosa-1(20),3(22),4,6,9(21),10,12,16,18-nonaene tris(trifluoroacetate)], the pIC50 in assay [1] (Table D1) was 7.12; in assay [2] (Table D1), below 6.40; in assay [3] (Table D1) it was below 6.40; at TYK2 (Table D1), below 6.40.
As to `CC(=O)N1CCC(COc2ccc3cc2CCc2cncc(c2)Nc2ncc(Cl)c(n2)N3)C1` (centres unmarked) [Example C56, 12-[(1-Acetylpyrrolidin-3-yl)methoxy]-6-chloro-2,4,8,18,22-pentaazatetracyclo[14.3.1.1(3,7).1(9,13)]docosa-1(20),3(22),4,6,9(21),10,12,16,18-nonaene bis(trifluoroacetate)], the pIC50 in assay [1] was 6.67; in assay [2], 6.59; in assay [3], below 6.40; against TYK2, below 6.40.
